From ChEMBL document CHEMBL6120985, “Discovery of a potent PARP1 PROTAC as a chemosensitizer for the treatment of colorectal cancer” (Eur J Med Chem, 2025)

Assays:
[1] = target: T1, Protein cereblon/Poly [ADP-ribose] polymerase 1 (Homo sapiens, UniProt P09874+Q96SW2); assay: PROTAC activity at CRBN/PARP1 in human HCT-116 cells assessed as degradation of PARP1; type: cell-based
Target sequence in this assay (P09874 whole entry): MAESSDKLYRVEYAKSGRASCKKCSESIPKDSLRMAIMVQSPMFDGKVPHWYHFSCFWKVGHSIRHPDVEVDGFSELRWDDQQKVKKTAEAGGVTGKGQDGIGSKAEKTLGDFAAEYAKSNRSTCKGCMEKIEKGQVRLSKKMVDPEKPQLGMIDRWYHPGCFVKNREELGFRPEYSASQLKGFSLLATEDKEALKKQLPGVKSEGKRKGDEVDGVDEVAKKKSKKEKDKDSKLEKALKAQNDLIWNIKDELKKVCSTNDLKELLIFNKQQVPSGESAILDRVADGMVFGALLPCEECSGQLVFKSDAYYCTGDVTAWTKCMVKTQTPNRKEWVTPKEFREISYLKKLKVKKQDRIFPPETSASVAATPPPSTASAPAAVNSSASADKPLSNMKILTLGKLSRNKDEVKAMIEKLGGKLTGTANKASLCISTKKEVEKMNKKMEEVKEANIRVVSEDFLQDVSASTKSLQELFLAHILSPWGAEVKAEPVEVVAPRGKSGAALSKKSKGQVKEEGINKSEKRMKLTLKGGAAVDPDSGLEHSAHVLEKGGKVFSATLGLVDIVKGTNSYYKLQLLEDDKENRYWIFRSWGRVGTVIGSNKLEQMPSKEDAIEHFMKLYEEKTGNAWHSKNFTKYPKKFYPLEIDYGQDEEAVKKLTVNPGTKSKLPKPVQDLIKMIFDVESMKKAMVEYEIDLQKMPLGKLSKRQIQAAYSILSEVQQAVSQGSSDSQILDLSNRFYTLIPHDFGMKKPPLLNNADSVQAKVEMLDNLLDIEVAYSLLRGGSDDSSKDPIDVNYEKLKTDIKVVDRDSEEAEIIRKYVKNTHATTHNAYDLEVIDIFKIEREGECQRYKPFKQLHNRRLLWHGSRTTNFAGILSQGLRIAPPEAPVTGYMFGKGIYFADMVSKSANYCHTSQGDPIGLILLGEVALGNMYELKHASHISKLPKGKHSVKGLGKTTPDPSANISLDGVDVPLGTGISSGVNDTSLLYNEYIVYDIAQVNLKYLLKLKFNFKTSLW
Target sequence in this assay (Q96SW2 whole entry): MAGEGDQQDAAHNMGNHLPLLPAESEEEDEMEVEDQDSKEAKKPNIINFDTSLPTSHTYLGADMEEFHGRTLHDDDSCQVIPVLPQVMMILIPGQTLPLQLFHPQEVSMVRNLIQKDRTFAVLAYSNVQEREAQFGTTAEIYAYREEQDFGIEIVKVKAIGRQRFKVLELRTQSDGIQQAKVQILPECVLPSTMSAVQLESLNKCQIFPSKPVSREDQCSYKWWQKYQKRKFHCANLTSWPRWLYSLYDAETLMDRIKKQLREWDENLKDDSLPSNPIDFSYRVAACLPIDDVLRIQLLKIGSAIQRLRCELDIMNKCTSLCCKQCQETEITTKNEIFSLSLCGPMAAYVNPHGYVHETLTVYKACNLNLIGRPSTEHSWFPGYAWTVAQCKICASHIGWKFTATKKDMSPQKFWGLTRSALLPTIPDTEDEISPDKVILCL

[2] = target: T1, Protein cereblon/Poly [ADP-ribose] polymerase 1; assay: PROTAC activity at CRBN/PARP1 in human HCT-116 cells assessed as maximum degradation of PARP1 relative to control; type: cell-based
Target sequence in this assay (P09874 2-1014 limits assumed): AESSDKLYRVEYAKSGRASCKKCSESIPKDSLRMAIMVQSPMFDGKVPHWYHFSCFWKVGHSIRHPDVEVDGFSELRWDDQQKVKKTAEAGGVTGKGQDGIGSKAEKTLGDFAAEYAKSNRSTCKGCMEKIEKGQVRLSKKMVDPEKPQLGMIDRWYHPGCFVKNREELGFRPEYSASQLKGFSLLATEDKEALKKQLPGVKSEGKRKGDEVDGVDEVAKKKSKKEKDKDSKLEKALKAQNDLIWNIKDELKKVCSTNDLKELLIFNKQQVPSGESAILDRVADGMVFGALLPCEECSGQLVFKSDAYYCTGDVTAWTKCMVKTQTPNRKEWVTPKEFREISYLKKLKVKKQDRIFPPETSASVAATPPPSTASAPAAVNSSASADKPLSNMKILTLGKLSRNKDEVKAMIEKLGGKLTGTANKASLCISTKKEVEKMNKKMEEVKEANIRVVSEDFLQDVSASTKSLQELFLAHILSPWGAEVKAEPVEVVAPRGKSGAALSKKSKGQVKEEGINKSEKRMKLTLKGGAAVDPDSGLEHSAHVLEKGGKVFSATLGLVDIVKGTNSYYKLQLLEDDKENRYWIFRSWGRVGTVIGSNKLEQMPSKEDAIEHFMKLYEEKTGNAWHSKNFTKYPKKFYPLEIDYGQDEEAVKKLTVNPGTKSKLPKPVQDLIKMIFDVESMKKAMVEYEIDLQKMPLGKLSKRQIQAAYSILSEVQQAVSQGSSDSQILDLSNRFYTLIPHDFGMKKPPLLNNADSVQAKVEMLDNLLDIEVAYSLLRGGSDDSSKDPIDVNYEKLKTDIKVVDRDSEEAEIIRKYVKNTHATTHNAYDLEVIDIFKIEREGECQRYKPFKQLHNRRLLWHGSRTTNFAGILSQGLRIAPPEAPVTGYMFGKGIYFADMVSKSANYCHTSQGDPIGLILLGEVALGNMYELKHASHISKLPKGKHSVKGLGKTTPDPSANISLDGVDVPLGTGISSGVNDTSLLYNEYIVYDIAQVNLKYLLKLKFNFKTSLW
Target sequence in this assay (Q96SW2 whole entry partner): as the sequence (Q96SW2 whole entry) above

SW-620 = assay: Cytotoxicity against human SW620 cells assessed as inhibition of cell growth measured after 72 hrs by CCK-8 method; type: functional, cell-based; details: SW-620, 72 h
LoVo = assay: Cytotoxicity against human LoVo cells assessed as inhibition of cell growth measured after 72 hrs by CCK-8 method; type: functional, cell-based
[3] = Cytotoxicity against HEK293T cells assessed as inhibition of cell growth measured after 72 hrs by CCK-8 method; type: toxicity, cell-based, HEK-293T; details: human
[4] = Cytotoxicity against human BEAS-2B cells assessed as inhibition of cell growth measured after 72 hrs by CCK-8 method; type: toxicity, cell-based
HCT-116 [5] = assay: Cytotoxicity against human HCT-116 cells assessed as inhibition of cell growth measured after 72 hrs by CCK-8 method; type: functional, cell-based; details: HCT-116, 72 h
HCT-116 [6] = assay: Induction of apoptosis in human HCT-116 cells assessed as viable cells at 2.5 nM measured after 72 hrs by annexin V/FITC and PI staining based flow cytometry analysis (reference value: 89.6%); type: functional; details: read-out: Activity
HCT-116 [7] = assay: Induction of apoptosis in human HCT-116 cells assessed as early apoptotic cells at 2.5 nM measured after 72 hrs by annexin V/FITC and PI staining based flow cytometry analysis (reference value: 3.43%); type: functional
HCT-116 [8] = assay: Induction of apoptosis in human HCT-116 cells assessed as late apoptotic cells at 2.5 nM measured after 72 hrs by annexin V/FITC and PI staining based flow cytometry analysis (reference value: 6.80%); type: functional
HCT-116 [9] = assay: Induction of apoptosis in human HCT-116 cells assessed as necrotic cells at 2.5 nM measured after 72 hrs by annexin V/FITC and PI staining based flow cytometry analysis (reference value: 0.16%); type: functional

Row | Structure (SMILES) | DC50 [1] | Emax [2] | also measured
1 | NC(=O)c1cccc2cn(-c3ccc([C@@H]4CCCN(C(=O)CC5CCN(CCC6CCN(CC7CCN(c8ccc9c(c8)C(=O)N(C8CCC(=O)NC8=O)C9=O)C7)CC6)CC5)C4)cc3)nc12 (some centres undefined) | > 20 µM | 33.6% | 
2 | NC(=O)c1cccc2cn(-c3ccc([C@@H]4CCCN(C(=O)CCCCCCCCNc5ccc6c(c5)C(=O)N(C5CCC(=O)NC5=O)C6=O)C4)cc3)nc12 (some centres undefined) | 2.21 µM | 58.8% | 
3 | NC(=O)c1cccc2cn(-c3ccc([C@@H]4CCCN(C(=O)COCCOCCNc5ccc6c(c5)C(=O)N(C5CCC(=O)NC5=O)C6=O)C4)cc3)nc12 (some centres undefined) | > 20 µM | 49.1% | 
4 | NC(=O)c1cccc2cn(-c3ccc([C@@H]4CCCN(C(=O)C5CCN(CC6CN(c7ccc8c(c7)C(=O)N(C7CCC(=O)NC7=O)C8=O)C6)CC5)C4)cc3)nc12 (some centres undefined) | 19 µM | 53.9% | 
5 | NC(=O)c1cccc2cn(-c3ccc([C@@H]4CCCN(C(=O)CC5CCN(CC6CCN(c7ccc8c(c7)C(=O)N(C7CCC(=O)NC7=O)C8=O)C6)CC5)C4)cc3)nc12 (some centres undefined) | > 20 µM |  | 
6 | NC(=O)c1cccc2cn(-c3ccc([C@@H]4CCCN(C(=O)CC5CCN(CC6CN(c7ccc8c(c7)C(=O)N(C7CCC(=O)NC7=O)C8=O)C6)CC5)C4)cc3)nc12 (some centres undefined) | > 20 µM | 31.8% | 
7 | NC(=O)c1cccc2cn(-c3ccc([C@@H]4CCCN(C(=O)CC5CCN(C(=O)CC6CCN(CC7CN(c8ccc9c(c8)C(=O)N(C8CCC(=O)NC8=O)C9=O)C7)CC6)CC5)C4)cc3)nc12 (some centres undefined) | 16.3 µM | 47.6% | 
8 | NC(=O)c1cccc2cn(-c3ccc([C@@H]4CCCN(C(=O)CC5CCN(C(=O)CC6CCN(c7ccc8c(c7)C(=O)N(C7CCC(=O)NC7=O)C8=O)CC6)CC5)C4)cc3)nc12 (some centres undefined) | > 20 µM |  | 
9 | NC(=O)c1cccc2cn(-c3ccc([C@@H]4CCCN(C(=O)COCCOCCOCCNc5ccc6c(c5)C(=O)N(C5CCC(=O)NC5=O)C6=O)C4)cc3)nc12 (some centres undefined) | > 20 µM | 37.4% | 
10 | NC(=O)c1cccc2cn(-c3ccc([C@@H]4CCCN(C(=O)CCCCNc5ccc6c(c5)C(=O)N(C5CCC(=O)NC5=O)C6=O)C4)cc3)nc12 (some centres undefined) | > 20 µM | 29.8% | 
11 | NC(=O)c1cccc2cn(-c3ccc([C@@H]4CCCN(C(=O)CC5CCN(C(=O)CC6CCN(CC7CCN(c8ccc9c(c8)C(=O)N(C8CCC(=O)NC8=O)C9=O)CC7)CC6)CC5)C4)cc3)nc12 (some centres undefined) | 0.23 µM | 65.1% | 
12 | NC(=O)c1cccc2cn(-c3ccc([C@@H]4CCCN(C(=O)CC5CCN(CC6CCN(c7ccc8c(c7)C(=O)N(C7CCC(=O)NC7=O)C8=O)CC6)CC5)C4)cc3)nc12 (some centres undefined) | 15.6 µM | 59.4% | 
13 | NC(=O)c1cccc2cn(-c3ccc([C@@H]4CCCN(C(=O)COCCOCCOCCOCCNc5ccc6c(c5)C(=O)N(C5CCC(=O)NC5=O)C6=O)C4)cc3)nc12 (some centres undefined) | 0.06 µM | 78.9% | 
14 | NC(=O)c1cccc2cn(-c3ccc([C@@H]4CCCN(C(=O)C5CCN(CC6CCN(c7ccc8c(c7)C(=O)N(C7CCC(=O)NC7=O)C8=O)C6)CC5)C4)cc3)nc12 (some centres undefined) | > 20 µM | 32.8% | 
15 | NC(=O)c1cccc2cn(-c3ccc([C@@H]4CCCN(CCC5CCN(CCC6CCN(CC7CN(c8ccc9c(c8)C(=O)N(C8CCC(=O)NC8=O)C9=O)C7)CC6)CC5)C4)cc3)nc12 (some centres undefined) | 0.03 µM | 71% | 
16 | NC(=O)c1cccc2cn(-c3ccc([C@@H]4CCCN(C(=O)C5CCN(C(=O)C6CCN(c7ccc8c(c7)C(=O)N(C7CCC(=O)NC7=O)C8=O)CC6)CC5)C4)cc3)nc12 (some centres undefined) | > 20 µM | 15.7% | 
17 | NC(=O)c1cccc2cn(-c3ccc([C@@H]4CCCN(C(=O)CC5CCN(CCC6CCN(CC7CN(c8ccc9c(c8)C(=O)N(C8CCC(=O)NC8=O)C9=O)C7)CC6)CC5)C4)cc3)nc12 (some centres undefined) | 0.5 µM | 83.6% | 
18 | NC(=O)c1cccc2cn(-c3ccc([C@@H]4CCCN(C(=O)CC5CCN(CCC6CCN(c7ccc8c(c7)C(=O)N(C7CCC(=O)NC7=O)C8=O)CC6)CC5)C4)cc3)nc12 (some centres undefined) | > 20 µM | 30.1% | 
19 | NC(=O)c1cccc2cn(-c3ccc([C@@H]4CCCN(C(=O)CC5CCN(C(=O)C6CCN(c7ccc8c(c7)C(=O)N(C7CCC(=O)NC7=O)C8=O)CC6)CC5)C4)cc3)nc12 (some centres undefined) | > 20 µM | 35.6% | 
20 | NC(=O)c1cccc2cn(-c3ccc([C@@H]4CCCN(C(=O)COCCOCCOCCOCCOCCNc5ccc6c(c5)C(=O)N(C5CCC(=O)NC5=O)C6=O)C4)cc3)nc12 (some centres undefined) | 19.1 µM | 47.7% | 
21 | NC(=O)c1cccc2cn(-c3ccc([C@@H]4CCCN(C(=O)CC5CCN(CCC6CCN(CC7CCN(c8ccc9c(c8)C(=O)N(C8CCC(=O)NC8=O)C9=O)CC7)CC6)CC5)C4)cc3)nc12 (some centres undefined) | 0.04 µM | 57.1% | 
22 | NC(=O)c1cccc2cn(-c3ccc([C@@H]4CCCNC4)cc3)nc12 [NIRAPARIB] |  |  | IC50 (SW-620): 490 nM
23 | O=C(CCCCCCCCCCC(=O)N1CCN(C(=O)c2cc(Cc3n[nH]c(=O)c4ccccc34)ccc2F)CC1)NCCNc1cccc2c1C(=O)N(C1CCC(=O)NC1=O)C2=O (centres undefined) |  |  | IC50 (SW-620): > 10000 nM; IC50 (LoVo): > 10000 nM; IC50 at 72 h [3]: 1860 nM; IC50 at 72 h [4]: 3.7 µM
24 | CCc1c2c(nc3ccc(O)cc13)-c1cc3c(c(=O)n1C2)COC(=O)[C@]3(O)CC [7-ETHYL-10-HYDROXYCAMPTOTHECIN] |  |  | IC50 (LoVo): 2.9 nM; IC50 (HCT-116 [5]): 2.9 nM; viability at 0.0025 µM (HCT-116 [6]): 76.7%; Activity (HCT-116 [7]): 5.48%; Activity (HCT-116 [8]): 17.1%; Activity (HCT-116 [9]): 0.77%
25 | NC(=O)c1cccc2cn(-c3ccc([C@@H]4CCCN(C(=O)CC5CCN(C(=O)CC6CCN(C(=O)C7CCN(c8ccc9c(c8)C(=O)N(C8CCC(=O)NC8=O)C9=O)CC7)CC6)CC5)C4)cc3)nc12 (some centres undefined) | > 20 µM | 6.96% | 
26 | NC(=O)c1cccc2cn(-c3ccc([C@@H]4CCCN(C(=O)CCCCCCNc5ccc6c(c5)C(=O)N(C5CCC(=O)NC5=O)C6=O)C4)cc3)nc12 (some centres undefined) | > 20 µM | 37.3% | 
27 | NC(=O)c1cccc2cn(-c3ccc([C@@H]4CCCN(C(=O)CC5CCN(C(=O)CC6CCN(CC7CCN(c8ccc9c(c8)C(=O)N(C8CCC(=O)NC8=O)C9=O)C7)CC6)CC5)C4)cc3)nc12 (some centres undefined) | 20.1 µM | 49.8% | 
28 | NC(=O)c1cccc2cn(-c3ccc([C@@H]4CCCN(C(=O)C5CCN(CC6CCN(c7ccc8c(c7)C(=O)N(C7CCC(=O)NC7=O)C8=O)CC6)CC5)C4)cc3)nc12 (some centres undefined) | > 20 µM | 30.2% | 
